Results on two molecules are retold here after patent US20230141783A1, “DIFFERENT FORMS OF 6-CHLORO-2-ETHYL-N-(4-(4-(4-(TRIFLUOROMETHOXY)PHENYL)PIPERIDINE-1-YL)BENZYL)IMIDAZO[1,2-A]PYRIDINE-3-CARBOXAMIDE” (priority 2019, published 2023).

Structures are written as SMILES. Entries after “also recorded” stand apart in the source; their conditions may differ. Where two headings read alike, the source gives them in different places. Bounds are passed on as bounds.

The solubility is the concentration that dissolves in the medium under given conditions.

A short description of one data set: DVS water absorption. The data set is classed as physicochemical. As to conditions: 90% RH at RT; ditosylate. An excerpt:
(FIGS. 4-5). It is the predominant form obtained in slurry experiments. Conversion from Form A to other XRPD patterns was mainly obtained from methanol (to Form C) or water (to pattern B) in the slurry medium. However, as it will be shown in further sections, Form C is converted to Form A upon re-slurry in the majority of other solvents (than methanol).
FIGS. 9 to 11 show XRPD, DSC, and TGA of a solid with Form C. […] The XRPD peaks of pattern C are sharper than those of Form A. Form C is the predominant form when methanol is used as the slurry medium. However, Form “C” is not a methanol solvate form of the di-tosylate salt. Many reactive crystallization experiments using different solvents generated Form C immediately after salt formation.

Data set [1] can be described thus: Exposing Forms A and C in 100% RH at RT (XRPD/DSC). The data set is classed as physicochemical. Conditions: 100% RH at RT for 6 days, ditosylate. The source says: Forms A and C were exposed in 100% RH environment at RT for 6 days; the solids were subsequently analyzed using DSC and XRPD.
In FIGS. 1 and 17, the XRPD of sample of Form A (previous obtained form EA and IPA/MEK) before and after 6 days exposure to 100% RH are sketched. FIGS. 19 and 20 show the DSC scan of the same samples after exposure. […] FIGS. 18 and 21 show the result of the same treatment for Form C.

The nature of data set [2]: Forms A and C re-slurry in pure solvents at RT (aging experiments, XRPD). As to conditions: re-slurry of Forms A and C at RT; except in methanol. It counts as physicochemical. Here is the method:
These experiments were performed to investigate potential transformation between Form A and C. The procedure of the experiments is shown below. • 15 mg Form A and 15 mg Form C were add into a 1.5 ml vial with magnetic stirrer. • 20 vol (600 ul) of various solvents was added into the vial • The suspensions were stir at RT for 5 days • Then filter and the solid was sent for XRPD (before and after drying in oven) and DSC

Data set [3] in a line: Long-term stability at 25° C./60% RH (HPLC). The data set is classed as physicochemical. Conditions: for Purity [%] (as measured by HPLC): 25° C./60% RH.
A short description of data set [4]: Stability under accelerated conditions 40° C./75% RH (HPLC). It counts as physicochemical. As to conditions: 40° C./75% RH, 6 months.
Data set [5] can be described thus: physchem. As to conditions: thermodynamic from solid.
Procedure: Approximate solubility of the starting di-tosylate salt (Form A) was measured by gravimetry method. 100 mg of the solid was suspended in 10 vol of various solvents and stirred at RT and 50° C. for 3 days. The mother liquid was then used to measure the solubility.
For data set [6] the following is noted: mono-tosylate.
A short description of data set [7]: physchem. As to conditions: pH 1, simulated gastric fluid, thermodynamic from solid.

Consider `CCc1nc2ccc(Cl)cn2c1C(=O)NCc1ccc(N2CCC(c3ccc(OC(F)(F)F)cc3)CC2)cc1.Cc1ccc(S(=O)(=O)O)cc1.Cc1ccc(S(=O)(=O)O)cc1` [Form A, 6-chloro-2-ethyl-N-(4-(4-(4-(trifluoromethoxy)phenyl)piperidine-1-yl)benzyl)imidazo[1,2-a]pyridine-3-carboxamide ditosylate], for which, in the data set “DVS water absorption”, the “water absorption (DVS)” value is “around 0.35%”. For the same molecule, the “crystalline form after exposure to 100% RH” value in data set [1] is recorded as “maintains its crystalline form; also recorded: no change to crystalline”. Further, in data set [2], the relative polymorph stability result is “more stable than Form C”. The long-term storage stability entry in data set [3] (25° C. and 60% RH for up to 60 months, listed as Q203-ditosylate form A, ditosylate) is given as “remains stable”. Further, the “Purity [%] (as measured by HPLC)” value in data set [3] (0 months), in data set [3] (6 months), in [3] (12 months), in data set [3] (24 months), in [3] (36 months) and in [3] (48 months) was over 98% in each case. Also, in [3] (60 months), the “Purity [%] (as measured by HPLC)” value is given as over 98%. For the same molecule, in [4], the “purity (HPLC)” value is over 98%. The Approximate solubility result is “nil” (Acetone, 50° C.); “nil” (Acetone, RT); “nil” (Acetonitrile, 50° C.); “nil” (Acetonitrile, RT); “nil” (Dichloromethane (DCM), 50° C.); “nil” (Dichloromethane (DCM), RT). The Approximate solubility result by setting is: (EA, 50° C.) “nil”; (EA, RT) “nil”; (IPA, RT) “nil”; (IPAC, 50° C.) “nil”; (IPAC, RT) “nil”; (MA, 50° C.) “nil”. Further, the Approximate solubility entry was “nil” (MA, RT); “nil” (Methul Isobutyl Ketone (MIBK), RT); “nil” (Methyl Ethyl Ketone (MEK), 50° C.); “nil” (Methyl Ethyl Ketone (MEK), RT); “nil” (Methyl tert-Butyl Ether (TBME), 50° C.); “nil” (Methyl tert-Butyl Ether (TBME), RT). The Approximate solubility result is, setting by setting: (THF, 50° C.) “nil”; (THF, RT) “nil”; (Water, RT) “nil”. Also, the solubility at 3 days in the data set “physchem [5]” (IPA, 50 °C, organic solvent or mixture) came to 3000 µg/mL; in “physchem [5]” (ethanol (EtOH), 50 °C, organic solvent or mixture) it was 7000 µg/mL; in “physchem [5]” (ethanol (EtOH), organic solvent or mixture), 1000 µg/mL; in the data set “physchem [5]” (methanol (MeOH), 50 °C, organic solvent or mixture) it was 275000 µg/mL; in “physchem [5]” (methanol (MeOH), organic solvent or mixture), 126000 µg/mL; in the data set “physchem [5]” (methyl isobutyl ketone (MIBK), 50 °C, organic solvent or mixture), 2000 µg/mL. The solubility at 3 days is 3000 µg/mL in the data set “physchem [5]” (toluene, 50 °C, organic solvent or mixture); 1000 µg/mL in “physchem [5]” (toluene, organic solvent or mixture); 3000 µg/mL in “physchem [5]” (water, 50 °C).

As to `CCc1nc2ccc(Cl)cn2c1C(=O)NCc1ccc(N2CCC(c3ccc(OC(F)(F)F)cc3)CC2)cc1.Cc1ccc(S(=O)(=O)O)cc1` [pTSA salt, 6-chloro-2-ethyl-N-(4-(4-(4-(trifluoromethoxy)phenyl)piperidine-1-yl)benzyl)imidazo[1,2-a]pyridine-3-carboxamide mono-tosylate], the “solid form after slurrying in buffer (XRPD)” value in data set [6] (pH 1 buffer, listed as pTSA) is given as “remained the same pattern”; in data set [6] (pH 1 buffer) it was “remained stable”; in data set [6] (pH 4.5 and above), “converted to freebase (type 28)”. The molecule further returned a solubility in “physchem [7]” of about 330 µg/mL.
